Experiment [1] has as its target T1, CCR9 (Homo sapiens (Human), UniProt P51686). Nature of the experiment: FLIPR calcium flux assay using hCCR9 over expressed cells (Chem1-hCCR9), TECK stimulation. The experiment is classed as cell-based. Conditions: Chem1-hCCR9 overexpressing cells. The method in brief: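 Chem1 cells overexpressing hCCR9, loaded with Fluo-4 NW dye (HBSS/20 mM HEPES, probenecid), preincubated 60 min with compound (10 μM-0.1 nM final), then stimulated with TECK at EC80. Calcium rise read on FLIPR; IC50 from four-parameter fit, Ki derived from IC50 using TECK concentration and same-day TECK EC50.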

The target in experiment [2] is T1, CCR9. Nature of the experiment: FLIPR calcium flux assay using MOLT4 cells, TECK stimulation. The experiment is classed as cell-based. Conditions: MOLT4 cells (human T-cell line). The method in brief:
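MOLT4 cells in HBSS/20 mM HEPES with probenecid, Fluo-4 NW loaded, preincubated with compound (10 μM-0.1 nM final, half-log) for 60 min before TECK stimulation. Calcium rise read on FLIPR; IC50 from four-parameter fit, converted to Ki using TECK concentration and same-day TECK EC50.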

SMILES strings stand for the structures.

T1 sequence (P51686 whole entry): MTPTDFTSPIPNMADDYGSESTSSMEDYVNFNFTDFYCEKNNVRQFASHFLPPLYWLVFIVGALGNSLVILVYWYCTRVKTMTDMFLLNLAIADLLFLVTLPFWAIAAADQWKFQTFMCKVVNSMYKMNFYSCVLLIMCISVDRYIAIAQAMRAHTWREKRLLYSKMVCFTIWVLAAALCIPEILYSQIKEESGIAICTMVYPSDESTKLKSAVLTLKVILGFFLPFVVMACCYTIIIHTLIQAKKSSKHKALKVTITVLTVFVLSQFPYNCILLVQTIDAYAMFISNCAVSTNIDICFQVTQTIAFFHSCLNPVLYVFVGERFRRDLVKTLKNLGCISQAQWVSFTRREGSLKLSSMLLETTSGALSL

As to `COc1ccc(N2C(=O)c3c(Cl)ccc(NS(=O)(=O)c4ccc(C(C)(C)C)cc4)c3C2=O)c(OC)n1` [Compound 230], the Ki at CCR9 [1] came out at 6 nM; on CCR9 [2], 8 nM.
For `COc1ncccc1N1C(=O)c2c(Cl)ccc(NS(=O)(=O)c3ccc(C(C)(C)C)cc3)c2C1=O` [Compound 183], in that order: 3 nM and 3 nM.
As to `CC(C)(C)c1ccc(S(=O)(=O)Nc2ccc(Cl)c3c2C(=O)N(Cc2cccc[n+]2[O-])C3=O)cc1` [Compound 199], the Ki was 10 nM at CCR9 [1] and 6 nM on CCR9 [2].
Taken in the same sequence, the figures for `CCc1c(OC)cncc1N1C(=O)c2c(Cl)ccc(NS(=O)(=O)c3ccc(C(C)(C)C)cc3)c2C1=O` [Compound 257] were 21 nM and 25 nM.
Regarding `Cc1ccnc(N2C(=O)c3c(Cl)ccc(NS(=O)(=O)c4ccc(C(C)(C)C)cc4)c3C2=O)n1` [Compound 216], the results for the Ki on CCR9 [1] and at CCR9 [2] were 49 nM and 23 nM, respectively.
Taken in the same sequence, the figures for `CC(C)(C)c1ccc(S(=O)(=O)Nc2ccc(Cl)c3c2C(=O)N(c2ccncn2)C3=O)cc1` [Compound 249] were 60 nM and 33 nM.
Taken in the same sequence, the figures for `CC(C)(C)c1ccc(S(=O)(=O)Nc2ccc(Cl)c3c2C(=O)N(c2cccnc2)C3=O)cc1` [Compound 43, 4-(tert-butyl)-N-(7-chloro-1,3-dioxo-2-(pyridin-3-yl)isoindolin-4-yl)benzenesulfonamide] were 42 nM and 25 nM.
For `CC(C)(C)c1ccc(S(=O)(=O)Nc2ccc(C#N)c3c2C(=O)N(Cc2cccnc2)C3=O)cc1` [Compound 82, 4-(tert-butyl)-N-(7-cyano-1,3-dioxo-2-(pyridin-3-ylmethyl)isoindolin-4-yl)benzenesulfonamide], in that order: 98 nM and 19 nM.
In the case of `CC(C)(C)c1ccc(S(=O)(=O)Nc2ccc(Cl)c3c2C(=O)N(c2cccnc2C(=O)O)C3=O)cc1` [Compound 287, 3-(4-((4-(tert-butyl)phenyl)sulfonamido)-7-chloro-1,3-dioxoisoindolin-2-yl)picolinic acid], the Ki at CCR9 [1] came to 10 nM; at CCR9 [2], 22 nM.
Taken in the same sequence, the figures for `Cc1c(N2C(=O)c3c(Cl)ccc(NS(=O)(=O)c4ccc(C(C)(C)C)cc4)c3C2=O)ccc[n+]1[O-]` [Compound 176, 3-(4-(4-(tert-butyl)phenylsulfonamido)-7-chloro-1,3-dioxoisoindolin-2-yl)-2-methylpyridine 1-oxide] were 13 nM and 6 nM.
On to `Cc1cccc(N2C(=O)c3c(Cl)ccc(NS(=O)(=O)c4ccc(C(C)(C)C)cc4)c3C2=O)[n+]1[O-]` [Compound 233], for which the Ki at CCR9 [1] was determined as 21 nM; at CCR9 [2], 19 nM.
Taken in the same sequence, the figures for `Cc1cnc(N2C(=O)c3c(Cl)ccc(NS(=O)(=O)c4ccc(C(C)(C)C)cc4)c3C2=O)s1` [Compound 217] were 39 nM and 35 nM.

For the origin of these results see patent US9969687B2, “Compounds useful as CCR9 modulators” (Norgine B.V., priority 2013, dated 2018).
